Measured values: patent US12486259B2, “FXR agonist having pyrazine structure, and preparation method and use” (JIANGSU TASLY DIYI PHARMACEUTICAL CO., LTD., priority 2020, dated 2025)

Tested on: C57/BL6 mice fed MCD diet
Test: Pharmacodynamic test in methionine-choline deficient diet (MCD) model of non-alcoholic fatty liver disease
Assay type: in vivo
Settings: for Weight, 0 week / Food intake, 1 week / Weight, 1 week / Food intake, 2 weeks / Weight, 2 weeks / Food intake, 3 weeks / Weight, 3 weeks / Food intake, 4 weeks / Weight, 4 week / liver weight / liver/body weight / ALT, 3 weeks / AST, 3 weeks / ALT, 4 weeks / AST, 4 weeks / HDL (blood lipid) / LDL (blood lipid) / TC (blood lipid) / TG (blood lipid) / HE score / Sirius red staining area / liver TC / liver TG: MCD mice, obeticholic acid 40 mpk; for Weight, 0 week / Weight, 1 week / Weight, 2 weeks / Weight, 3 weeks / Weight, 4 week: TM compounds 30 mpk, once daily by gavage; for Food intake, 1 week / Food intake, 2 weeks / Food intake, 3 weeks / Food intake, 4 weeks / liver weight / liver/body weight / ALT, 3 weeks / AST, 3 weeks / ALT, 4 weeks / AST, 4 weeks / HDL (blood lipid) / LDL (blood lipid) / TC (blood lipid) / TG (blood lipid) / HE score / Sirius red staining area / liver TC / liver TG: TM 30 mpk; for Food intake, 1 week / Food intake, 2 weeks / Food intake, 3 weeks / Food intake, 4 weeks / ALT, 3 weeks / AST, 3 weeks / ALT, 4 weeks / AST, 4 weeks: gavage; for Food intake, 4 weeks / Weight, 4 week / ALT, 4 weeks / AST, 4 weeks / HE score / Sirius red staining area: 4 weeks; for liver weight / liver/body weight / HDL (blood lipid) / LDL (blood lipid) / TC (blood lipid) / TG (blood lipid) / liver TC / liver TG: after 4 weeks; for ALT, 3 weeks / AST, 3 weeks / ALT, 4 weeks / AST, 4 weeks / HDL (blood lipid) / LDL (blood lipid) / TC (blood lipid) / TG (blood lipid): blood; for HE score: liver pathology score (Table 12 criteria); for Sirius red staining area / liver TC / liver TG: liver; for blood lipid levels (in words) / liver triglyceride and cholesterol content (in words) / liver weight and liver/body weight (in words): after 4 weeks of MCD and compounds treatment; for ALT and AST compared to the model group (in words): three weeks after MCD and compounds treatment
Protocol: Animal strain: C57/BL6, Animal Grade: SPF Grade, Gender: male, Animal Age: 8 weeks old, Animals Received Date: 2018 Sep. 28, Animal Source: Shanghai Lingchang Biotechnology Co. Ltd., Animal Certificate No: SCXK (Shanghai)2013-0018 2013001836799, Mouse feeding Environment: temperature 20-26° C., humidity 40-70%, 12 hour day and night cycle.
5% Solutol HS15/Normal saline: after Solutol HS15 (polyethylene glycol 15 hydroxystearate solubilizer) is dissolved in a water bath at 37° C., 5 ml of it is dissolved in 100 ml of normal saline, thoroughly stirred for later use.
Obeticholic acid/5% Solutol HS15/Normal saline: 0.15 ml Solutol HS15 is added to accurately weighed 12 mg obeticholic acid to fully dissolve it, and 2.85 ml normal saline is added, vigorously mixed and dissolved by the ultrasound. • TM-01 Group/5% Solutol HS15/Normal saline: 2.5 ml of 6 mg/ml TM-01 suspension is taken, 2.5 ml of 5% Solutol HS15/normal saline is added, and the mixture is mixed well. • TM-02 Group/5% Solutol HS15/Normal saline: 2.5 ml of 6 mg/ml TM-02 suspension is taken, 2.5 ml of 5% Solutol HS15/normal saline is added, and the mixture is mixed well. • TM-06 Group/5% Solutol HS15/Normal saline: 2.5 ml of 6 mg/ml TM-06 suspension is taken, 2.5 ml of 5% Solutol HS15/Normal saline is added, and the mixture is mixed well. • TM-09 Group/5% Solutol HS15/Normal saline: 2.5 ml of 6 mg/ml TM-09 suspension is taken, 2.5 ml of 5% Solutol HS15/Normal saline is added, and the mixture is mixed well.
Menstruum and test compounds are administered by gavage at a dose volume of 10 ml/kg;
After reaching the animal house, 70 8-week-old C57/BL6 mice are fed adaptively and randomly divided into 7 groups according to body weight after the average body weight reaches 23 g. They are given the model feed. The first group receives the control diet MCS and the remaining groups receive the MCD diet, while each group of mice receives compound treatment as follows: • Group 1. Control Group: MCS, menstruum, administered once daily by gavage; • Group 2. Model Group: MCD, menstruum, administered once daily by gavage; • Group 3. Obeticholic acid group: MCD, 40 mpk obeticholic acid, administered once daily by gavage; • Group 4. TM-01 Group: MCD, 30 mpk TM-01, administered once daily by gavage; • Group 5. TM-02 Group: MCD, 30 mpk TM-02, administered once daily by gavage; • Group 6. TM-06 Group: MCD, 30 mpk TM-06, administered once daily by gavage; • Group 7. TM-09 Group: MCD, 30 mpk TM-09, administered once daily by gavage; 2.4 Experimental Methods
Body weight and food intake are measured weekly during the experiment. Twenty-one days after administration, tail tips are bled with microcapillaries for AST, ALT measurements. Twenty-eight days after administration, mice are terminated, hearts are bled, and liver tissues are collected and weighed. One portion is snap frozen with liquid nitrogen for subsequent analysis and the other portion are fixed for pathological analysis.
Mouse blood is centrifuged at 5000 rpm for 10 minutes and supernatants are collected for determination of TG (triglycerides), TC (total cholesterol), HDL (high density lipoprotein), LDL (low density lipoprotein), AST (aspartate aminotransferase) and ALT (alanine aminotransferase).
AST and ALT after administration for three and four weeks are determined according to the instructions of kit. The blood lipid index 4 weeks after administration is sent to Adicon Medical Laboratory Co. Ltd. for detection.
The livers are removed from −80° C., homogenized in PBS (phosphate buffered saline), extracted with chloroform methanol organic phase, and subjected to TC and TG assays using the kit, normalized for protein content.
Four weeks after administration, the mice are anesthetized. The heart is bled, the liver is isolated and weighed. The right lobe is snapfrozen with liquid nitrogen and stored at −80° C. for liver lipid analysis. The left lobe is isolated and fixed in 10% formalin for subsequent HE and Sirius Red staining. […]

Compound | Weight, 0 week | Food intake, 1 week | Weight, 1 week | Food intake, 2 weeks | Weight, 2 weeks | Food intake, 3 weeks | Weight, 3 weeks | Food intake, 4 weeks | Weight, 4 week | liver weight | liver/body weight | ALT, 3 weeks | AST, 3 weeks | ALT, 4 weeks | AST, 4 weeks | HDL (blood lipid) | LDL (blood lipid) | TC (blood lipid) | TG (blood lipid) | HE score | also measured
O=C(O)c1cccc(C2CC(O)(c3cnc(OCc4c(-c5c(Cl)cccc5Cl)noc4C4CC4)cn3)C2)c1 (stereo not drawn) [TM-01, 3-(3-(5-(5-cyclopropyl-3-(2,6-dichlorophenyl)isoxazole-4-ylmethoxy)-2-pyrazine)-1-hydroxycyclobutane) benzoic acid] | 23.78 ± 0.47 g | 3.011 ± 0.555 g | 21.24 ± 0.42 g | 2.746 ± 0.466 g | 18.49 ± 0.41 g | 1.909 ± 0.215 g | 16.97 ± 0.38 g | 1.697 ± 0.027 g | 14.70 ± 0.20 g | 0.89 ± 0.05 g | 6.32 ± 0.26 % | 41.58 ± 10.32 U/L | 53.50 ± 19.62 U/L | 14.28 ± 13.21 U/L | 40.36 ± 26.31 U/L | 0.59 ± 0.11 mmol/L | 2.61 ± 0.26 mmol/L | 0.95 ± 0.44 mmol/L | 0.53 ± 0.10 mmol/L | 1 | Sirius red staining area: 0.365 ± 0.069 %; liver TC: 34.9 ± 8.2 µmol/g protein; liver TG: 247 ± 54.1 µmol/g protein; blood lipid levels (in words): different reductions in blood lipids; liver triglyceride and cholesterol content (in words): significant lowering effect on liver triglyceride and cholesterol levels; liver weight and liver/body weight (in words): significantly increases mouse liver weight and liver/body weight; ALT and AST compared to the model group (in words): significantly reduced
O=C(O)c1cccc(N2CC(O)(c3cnc(OCc4c(-c5c(Cl)cccc5Cl)noc4C4CC4)cn3)C2)c1 [TM-02, 3-(3-(5-((5-cyclopropyl-3-(2,6-dichlorophenyl)isoxazol-4-yl)methoxy)pyrazine-2-yl)-3-hydroxyazetidin-1-yl) benzoic acid] | 23.71 ± 0.35 g | 2.190 ± 0.504 g | 21.52 ± 0.42 g | 2.400 ± 0.288 g | 18.81 ± 0.49 g | 1.688 ± 0.266 g | 16.69 ± 0.34 g | 1.518 ± 0.376 g | 15.48 ± 0.35 g | 0.85 ± 0.05 g | 5.48 ± 0.28 % | 183.36 ± 29.85 U/L | 113.46 ± 13.79 U/L | 90.68 ± 42.13 U/L | 83.24 ± 12.08 U/L | 0.61 ± 0.02 mmol/L | 2.93 ± 0.12 mmol/L | 1.25 ± 0.14 mmol/L | 0.57 ± 0.06 mmol/L | 1.4 | Sirius red staining area: 0.398 ± 0.030%; liver TC: 41.7 ± 5.73 µmol/g protein; liver TG: 307 ± 26.3 µmol/g protein; blood lipid levels (in words): different reductions in blood lipids; liver triglyceride and cholesterol content (in words): different lowering effects; liver weight and liver/body weight (in words): significantly increases mouse liver weight and liver/body weight; ALT and AST compared to the model group (in words): showing the same way as the obeticholic acid group
CC(C)c1onc(-c2c(Cl)cccc2Cl)c1COc1cnc(C2(O)CC(c3cccc(C(=O)O)c3)C2)cn1 (stereo not drawn) [TM-06, 3-(3-(5-(5-isopropyl-3-(2,6-dichlorophenyl)isoxazole-4-ylmethoxy)-2-pyrazine)-1-hydroxycyclobutane) benzoic acid] | 23.75 ± 0.27 g | 2.356 ± 0.213 g | 21.36 ± 0.27 g | 2.664 ± 0.194 g | 18.29 ± 0.28 g | 2.093 ± 0.250 g | 16.41 ± 0.25 g | 1.932 ± 0.137 g | 15.70 ± 0.22 g | 0.67 ± 0.03 g | 4.23 ± 0.13 % | 48.97 ± 26.07 U/L | 52.14 ± 18.73 U/L | 49.13 ± 33.04 U/L | 45.23 ± 13.21 U/L | 0.42 ± 0.06 mmol/L | 3.01 ± 0.09 mmol/L | 0.97 ± 0.16 mmol/L | 0.59 ± 0.02 mmol/L | 1.6 | Sirius red staining area: 0.421 ± 0.081%; liver TC: 38.2 ± 35 µmol/g protein; liver TG: 304 ± 46.5 µmol/g protein; blood lipid levels (in words): different reductions in blood lipids; liver triglyceride and cholesterol content (in words): different lowering effects; liver weight and liver/body weight (in words): significantly increases mouse liver weight and liver/body weight; ALT and AST compared to the model group (in words): significantly reduced
